Assay results: US6737383B1, “Herbicidal oxadiazolidines” (priority 1999, dated 2004)

Tests used:
cocklebur = test: Test B pre/postemergence cocklebur; format: in vivo, Xanthium strumarium
Method in brief: (§1)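 Response is a visual 0-to-10 score relative to untreated plants, where 0 means no effect and 10 means complete control, taken twelve to sixteen days after application. Treatments went onto soil at planting and onto foliage of 1- to 4-leaf plants, using a surfactant-containing non-phytotoxic solvent.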

bedstraw = test: Test B pre/postemergence bedstraw; format: in vivo, Galium aparine
Method in brief: as §1

bamyardgrass = test: Test B flood test barnyardgrass; format: in vivo, Echinochloa crus-galli
Method in brief: (§2)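 Read-out is a visual response score from 0 (no effect) to 10 (complete control), assigned by comparison with untreated controls. Treatment was applied at the 2-leaf stage, and plants stayed in the greenhouse for twelve to sixteen days before scoring.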

duck salad = test: Test B flood test duck salad; format: in vivo, Heteranthera limosa
Method in brief: as §2

surinam grass = test: Test B pre/postemergence surinam grass; format: in vivo, Brachiaria decumbens
Method in brief: as §1

giant foxtail = test: Test B pre/postemergence giant foxtail; format: in vivo, Setaria faberii
Method in brief: as §1

smallflower flatsedge = test: Test B flood test smallflower flatsedge; format: in vivo, Cyperus difformis
Method in brief: as §2

blackgrass = test: Test B pre/postemergence blackgrass; format: in vivo, Alopecurus myosuroides
Method in brief: as §1

purple nutsedge = test: Test B pre/postemergence purple nutsedge; format: in vivo, Cyperus rotundus
Method in brief: as §1

morningglory = test: Test B pre/postemergence morningglory; format: in vivo, Ipomoea hederacea
Method in brief: as §1

wild oat = test: Test B pre/postemergence wild oat; format: in vivo, Avena fatua; settings: for Plant response rating, Wild oats: Rate 250 g/ha
Method in brief: as §1

corn = test: Test B pre/postemergence corn; format: in vivo, Zea mays
Method in brief: as §1

velvetleaf = test: Test B pre/postemergence velvetleaf; format: in vivo, Abutilon theophrasti; settings: for Plant response rating, Velvetleaf: Rate 250 g/ha
Method in brief: as §1

rice = test: Test B flood test rice; format: in vivo, Oryza sativa
Method in brief: as §2

soybean = test: Test B pre/postemergence soybean; format: in vivo, Glycine max
Method in brief: as §1

wheat = test: Test B pre/postemergence wheat; format: in vivo, Triticum aestivum; settings: for Plant response rating, Wheat: Rate 250 g/ha
Method in brief: as §1

crabgrass = test: Test B pre/postemergence crabgrass; format: in vivo, Digitaria sanguinalis
Method in brief: as §1

[1] = Postemergence, Rate 125 g/ha, scale of 0 to 10 where 0 is no effect and 10 is complete control
[2] = Postemergence, Rate 250 g/ha, scale 0 to 10, 0 no effect, 10 complete control
[3] = Preemergence, Rate 62 g/ha, scale 0 to 10 (0 no effect, 10 complete control)
[4] = Preemergence, Rate 125 g/ha, scale 0 to 10 (0 no effect, 10 complete control)
[5] = Preemergence, Rate 250 g/ha, scale of 0 to 10 where 0 is no effect and 10 is complete control
[6] = Preemergence, Rate 500 g/ha, scale 0 to 10 (0 no effect, 10 complete control)
[7] = Rate 62 g/ha, Postemergence, scale of 0 to 10 where 0 is no effect and 10 is complete control
[8] = Rate 500 g/ha, Postemergence, scale 0 to 10, 0 no effect, 10 complete control
[9] = Postemergence, Rate 62 g/ha, scale 0 to 10, 0 is no effect, 10 is complete control
[10] = Rate 500 g/ha, listed under Postemergence (flood test species), scale 0 to 10, 0 no effect, 10 complete control
[11] = flood test, listed under Postemergence, Rate 250 g/ha, scale 0 to 10, 0 no effect, 10 complete control
[12] = Postemergence (flood test species), Rate 125 g/ha, scale of 0 to 10 where 0 is no effect and 10 is complete control
[13] = Rate 62 g/ha, Postemergence section, flood test species, scale of 0 to 10 where 0 is no effect and 10 is complete control
[14] = Rate 250 g/ha, Postemergence (flood test), scale 0 to 10, 0 is no effect, 10 is complete control
[15] = Preemergence, Rate 125 g/ha, 0 is no effect, 10 is complete control
[16] = Preemergence, scale of 0 to 10 where 0 is no effect and 10 is complete control
[17] = Postemergence, scale 0 to 10, 0 is no effect, 10 is complete control

CC(C)N(C(=O)n1oc(=O)n(C2CCCCC2)c1=O)c1ccc(F)cc1 [Compound 110]
9: Plant response rating, Crabgrass (crabgrass; [5])
6: Soybean plant response rating (soybean; [6])
7: Bedstraw plant response rating (bedstraw; [6]) | Plant response rating, B. signalgrass (surinam grass; [4]) | B. signalgrass plant response rating (surinam grass; [6]) | Plant response rating, Blackgrass (blackgrass; [5]) | Blackgrass plant response rating (blackgrass; [6]) | Velvetleaf plant response rating (velvetleaf; [6]) | Soybean plant response rating (soybean; [8])
5: Plant response rating, Bedstraw (bedstraw; [5]) | Giant foxtail plant response rating (giant foxtail; [2]) | Morningglory plant response rating (morningglory; [1]) | Morningglory plant response rating (morningglory; [2]) | Morningglory plant response rating (morningglory; [8]) | Plant response rating, Wild oats (wild oat; [16]) | Wild oats plant response rating (wild oat; [6]) | Velvetleaf plant response rating (0 to 10 scale) (velvetleaf; [15]) | Plant response rating, Velvetleaf (velvetleaf; [16]) | Plant response rating, Soybean (soybean; [4]) | Plant response rating, Soybean (soybean; [5]) | Plant response rating, Soybean (soybean; Rate 250 g/ha, Postemergence, scale 0 to 10, 0 is no effect, 10 is complete control)
8: Bedstraw plant response rating (bedstraw; [2]) | Giant foxtail plant response rating (giant foxtail; [8]) | Blackgrass plant response rating (blackgrass; [8]) | Crabgrass plant response rating (crabgrass; [8])
10: Giant foxtail plant response rating (giant foxtail; [3]) | Plant response rating, Giant foxtail (giant foxtail; [4]) | Plant response rating, Giant foxtail (giant foxtail; [5]) | Giant foxtail plant response rating (giant foxtail; [6]) | Crabgrass plant response rating (crabgrass; [6])
1: Blackgrass plant response rating (blackgrass; [7]) | Plant response rating, Velvetleaf (velvetleaf; [17]) | Soybean plant response rating (soybean; [3]) | Wheat plant response rating (wheat; [8])
0: Cocklebur plant response rating (cocklebur; [3]) | Plant response rating, Cocklebur (cocklebur; [4]) | Plant response rating, Cocklebur (cocklebur; [5]) | Cocklebur plant response rating (cocklebur; [6]) | Cocklebur plant response rating (cocklebur; [7]) | Bedstraw plant response rating (bedstraw; [3]) | Barnyardgrass plant response rating (bamyardgrass; [9]) | Barnyardgrass plant response rating (bamyardgrass; Rate 125 g/ha, Postemergence section (flood test species), scale 0 to 10, 0 no effect, 10 complete control) | Barnyardgrass plant response rating (bamyardgrass; [10]) | Barnyardgrass plant response rating (bamyardgrass; [11]) | Ducksalad plant response rating (duck salad; [12]) | Ducksalad plant response rating (duck salad; [13]) | Ducksalad plant response rating (duck salad; [10]) | Ducksalad plant response rating (duck salad; [11]) | B. signalgrass plant response rating (surinam grass; [9]) | B. signalgrass plant response rating (surinam grass; [2]) | B. signalgrass plant response rating (surinam grass; Rate 125 g/ha, Postemergence, scale 0 to 10, 0 no effect, 10 complete control) | Giant foxtail plant response rating (giant foxtail; [7]) | S. Flatsedge plant response rating (smallflower flatsedge; [12]) | S. Flatsedge plant response rating (smallflower flatsedge; [13]) | Plant response rating, S. Flatsedge (smallflower flatsedge; [14]) | S. Flatsedge plant response rating (smallflower flatsedge; [10]) | Blackgrass plant response rating (blackgrass; [3]) | Nutsedge plant response rating (purple nutsedge; [1]) | Nutsedge plant response rating (purple nutsedge; [2]) | Nutsedge plant response rating (purple nutsedge; [3]) | Plant response rating, Nutsedge (purple nutsedge; [4]) | Plant response rating, Nutsedge (purple nutsedge; [5]) | Nutsedge plant response rating (purple nutsedge; [6]) | Nutsedge plant response rating (purple nutsedge; [7]) | Nutsedge plant response rating (purple nutsedge; [8]) | Morningglory plant response rating (morningglory; [3]) | Plant response rating, Morningglory (morningglory; [4]) | Plant response rating, Morningglory (morningglory; [5]) | Morningglory plant response rating (morningglory; [6]) | Wild oats plant response rating (wild oat; [1]) | Wild oats plant response rating (wild oat; [3]) | Wild oats plant response rating (wild oat; [7]) | Plant response rating, Wild oats (wild oat; [17]) | Corn plant response rating (corn; [1]) | Corn plant response rating (corn; [2]) | Corn plant response rating (corn; [7]) | Velvetleaf plant response rating (velvetleaf; [1]) | Velvetleaf plant response rating (velvetleaf; [3]) | Velvetleaf plant response rating (velvetleaf; [7]) | Rice plant response rating (rice; [12]) | Rice plant response rating (rice; [13]) | Plant response rating, Rice (rice; [14]) | Rice plant response rating (rice; [10]) | Wheat plant response rating (wheat; [1]) | Wheat plant response rating (wheat; [3]) | Wheat plant response rating (0 to 10 scale) (wheat; [15]) | Plant response rating, Wheat (wheat; [16]) | Wheat plant response rating (wheat; [7]) | Plant response rating, Wheat (wheat; [17])
4: Plant response rating, Bedstraw (bedstraw; [4]) | Blackgrass plant response rating (blackgrass; [1]) | Blackgrass plant response rating (blackgrass; [2]) | Morningglory plant response rating (morningglory; [7]) | Plant response rating, Corn (corn; [5]) | Corn plant response rating (corn; [6]) | Corn plant response rating (corn; [8])
2: Cocklebur plant response rating (cocklebur; [1]) | Cocklebur plant response rating (cocklebur; [2]) | Bedstraw plant response rating (bedstraw; [9]) | Giant foxtail plant response rating (giant foxtail; [1]) | Wild oats plant response rating (wild oat; [8]) | Corn plant response rating (corn; [3]) | Velvetleaf plant response rating (velvetleaf; [8]) | Crabgrass plant response rating (crabgrass; [7])
3: Cocklebur plant response rating (cocklebur; [8]) | B. signalgrass plant response rating (surinam grass; [3]) | B. signalgrass plant response rating (surinam grass; Rate 500 g/ha, Postemergence, scale of 0 to 10 where 0 is no effect and 10 is complete control) | Plant response rating, Blackgrass (blackgrass; [4]) | Wild oats plant response rating (0 to 10 scale) (wild oat; [15]) | Plant response rating, Corn (corn; [4]) | Soybean plant response rating (soybean; [1]) | Soybean plant response rating (soybean; [7]) | Wheat plant response rating (wheat; [6]) | Crabgrass plant response rating (crabgrass; [1]) | Crabgrass plant response rating (crabgrass; [2]) | Crabgrass plant response rating (crabgrass; [3]) | Plant response rating, Crabgrass (crabgrass; [4])
